What was measured:
Assay type in all cases: biochemical
JNK1 = JNK1 (Homo sapiens, UniProt P45983); assay: IC50 assay for JNK kinase inhibition, JNK1
JNK2 = JNK2 (Homo sapiens, UniProt P45984); assay: IC50 assay for JNK kinase inhibition, JNK2
JNK3 = JNK3 (Homo sapiens, UniProt P53779); assay: IC50 assay for JNK kinase inhibition, JNK3
Chain of JNK3 (P53779 whole entry): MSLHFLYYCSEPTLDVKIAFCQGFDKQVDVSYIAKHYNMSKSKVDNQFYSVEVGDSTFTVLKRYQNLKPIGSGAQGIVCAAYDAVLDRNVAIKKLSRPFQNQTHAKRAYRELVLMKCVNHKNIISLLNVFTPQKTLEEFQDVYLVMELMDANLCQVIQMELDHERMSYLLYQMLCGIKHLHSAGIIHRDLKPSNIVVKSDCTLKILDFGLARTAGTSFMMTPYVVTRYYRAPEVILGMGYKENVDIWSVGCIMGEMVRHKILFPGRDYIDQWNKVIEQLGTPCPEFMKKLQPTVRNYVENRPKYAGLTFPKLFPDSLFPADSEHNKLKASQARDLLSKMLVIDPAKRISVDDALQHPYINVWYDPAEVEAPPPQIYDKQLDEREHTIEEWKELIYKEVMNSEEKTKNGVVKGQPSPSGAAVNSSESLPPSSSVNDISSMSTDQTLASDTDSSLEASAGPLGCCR

Chain of JNK1 (P45983 whole entry): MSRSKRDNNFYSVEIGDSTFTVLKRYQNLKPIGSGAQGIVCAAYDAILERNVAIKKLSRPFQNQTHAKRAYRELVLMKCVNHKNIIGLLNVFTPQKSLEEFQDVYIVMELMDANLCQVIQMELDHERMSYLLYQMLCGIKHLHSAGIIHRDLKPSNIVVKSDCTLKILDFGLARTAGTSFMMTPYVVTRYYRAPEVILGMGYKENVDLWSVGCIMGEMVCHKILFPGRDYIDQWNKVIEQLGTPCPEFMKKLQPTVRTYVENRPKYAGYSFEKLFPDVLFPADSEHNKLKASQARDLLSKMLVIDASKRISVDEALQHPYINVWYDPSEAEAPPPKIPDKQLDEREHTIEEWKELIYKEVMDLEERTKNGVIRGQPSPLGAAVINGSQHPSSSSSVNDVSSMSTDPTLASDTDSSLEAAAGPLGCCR
Chain of JNK2 (P45984 whole entry): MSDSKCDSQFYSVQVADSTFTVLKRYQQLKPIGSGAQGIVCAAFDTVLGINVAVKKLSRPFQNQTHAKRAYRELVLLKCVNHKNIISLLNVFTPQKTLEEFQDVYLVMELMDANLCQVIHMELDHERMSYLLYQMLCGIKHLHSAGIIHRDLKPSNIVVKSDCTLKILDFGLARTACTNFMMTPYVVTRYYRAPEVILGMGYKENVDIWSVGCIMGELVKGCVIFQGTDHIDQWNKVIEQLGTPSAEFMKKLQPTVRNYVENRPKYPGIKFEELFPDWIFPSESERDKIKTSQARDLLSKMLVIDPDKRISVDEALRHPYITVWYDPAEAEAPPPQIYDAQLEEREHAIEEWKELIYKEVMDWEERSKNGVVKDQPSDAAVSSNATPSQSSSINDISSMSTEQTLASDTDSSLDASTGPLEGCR

Compound	IC50 (JNK1) [nM]	IC50 (JNK2) [nM]	IC50 (JNK3) [nM]
CN(C)C/C=C/C(=O)Nc1ccc(C(=O)N2CCC[C@@H](Nc3nccc(-c4c(-c5ccccc5)nn5ccccc45)n3)C2)cc1 [I-5, (R,E)-4-(dimethylamino)-N-(4-(3-((4-(2-phenylpyrazolo[1,5-a]pyridin-3-yl)pyrimidin-2-yl)amino)piperidine-1-carbonyl)phenyl)but-2-enamide]	569	24	15
CN(C)C/C=C/C(=O)Nc1ccc(NC(=O)N2CC[C@H](Nc3nccc(-c4c(-c5ccccc5)nn5ccccc45)n3)C2)cc1 [I-18, (S,E)-N-(4-(4-(dimethylamino)but-2-enamido)phenyl)-3-((4-(2-phenylpyrazolo[1,5-a]pyridin-3-yl)pyrimidin-2-yl)amino)pyrrolidine-1-carboxamide]	99.3	12.4	15.7
CN(C)CCCC(=O)Nc1ccc(C(=O)N2CCC[C@H](Nc3nccc(-c4c(-c5ccccc5)nn5ccccc45)n3)C2)cc1 [I-2, (S)-4-(dimethylamino)-N-(4-(3-((4-(2-phenylpyrazolo[1,5-a]pyridin-3-yl)pyrimidin-2-yl)amino)piperidine-1-carbonyl)phenyl)butanamide]	64	11	20
CN(C)CCCC(=O)Nc1ccc(C(=O)N2CCCC[C@H](Nc3nccc(-c4c(-c5ccccc5)nn5ccccc45)n3)C2)cc1 [I-14, (S)-4-(dimethylamino)-N-(4-(3-((4-(2-phenylpyrazolo[1,5-a]pyridin-3-yl)pyrimidin-2-yl)amino)azepane-1-carbonyl)phenyl)butanamide]	314	29	252
